From patent US11566007B2, “Ras inhibitors” (Revolution Medicines, Inc., priority 2019, dated 2023)
pIC50: −log10 of the molar value.

Experiments:
K-Ras G12C = K-Ras G12C (Homo sapiens (Human), UniProt P01116+P62937, G12C); test: Ras-Raf (BRAF RBD) disruption / FRET / MOA assay, KRAS G12C; assay type: biochemical; conditions: KRAS G12C; Ras-Raf disruption/FRET/MOA assay; read-out: IC50* KRAS G12C FRET data
Outline: (§1)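 A 10-point, 3-fold dilution series topping at 30 μM final was incubated 3 h at 25° C with the Ras/cyclophilin A/BRAF RBD mixture.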

NCI-H358 (K-Ras G12C) = test: CellTiter-Glo cell viability assay, NCI-H358; assay type: cell-based, human; conditions: Homo sapiens, NCI-H358, 120 h, NCI-H358, 5-day treatment; class symbols; read-out: Additional H358 Cell Viability assay data (K-Ras G12C, IC50)
Outline: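 Cells seeded, compound added directly, 5-day exposure. Plates to RT ~30 min, CellTiter-Glo luminescence read. Normalized to DMSO avg (x100); 4-parameter logistic fit.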

KRAS Q61H = KRAS Q61H (Homo sapiens (Human), UniProt P01116+P62937, Q61H); test: Ras-Raf (BRAF RBD) disruption / FRET / MOA assay, KRAS Q61H; assay type: biochemical; conditions: Ras-Raf disruption/FRET/MOA assay; class symbols; read-out: KRAS Q61H FRET data IC50
KRAS Q61H, sequence (P01116-2 other isoform, or with tags, fused parts or gaps Q61H): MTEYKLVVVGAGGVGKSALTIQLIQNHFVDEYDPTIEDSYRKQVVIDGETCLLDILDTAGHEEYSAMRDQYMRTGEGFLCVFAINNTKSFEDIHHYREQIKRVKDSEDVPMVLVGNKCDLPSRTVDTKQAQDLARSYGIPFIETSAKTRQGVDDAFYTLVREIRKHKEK
KRAS Q61H, sequence (P62937 whole entry): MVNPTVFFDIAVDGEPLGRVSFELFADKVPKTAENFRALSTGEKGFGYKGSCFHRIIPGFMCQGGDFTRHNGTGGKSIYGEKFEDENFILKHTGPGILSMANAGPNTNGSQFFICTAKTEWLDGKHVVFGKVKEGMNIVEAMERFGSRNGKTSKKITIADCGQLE
Outline: (§2)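 Compounds (30 μM top final, 10-point 3-fold dilutions) incubated 3 h at 25° C with nucleotide-loaded Ras, cyclophilin A and BRAF RBD. Detection with 10 nM anti-His Eu-W1024 and 50 nM anti-GST allophycocyanin over another 1.5 h. Lowered TR-FRET ratio relative to DMSO wells gives IC50.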

NRAS Q61R = NRAS Q61R (Homo sapiens (Human), UniProt P01111+P62937, Q61R); test: Ras-Raf (BRAF RBD) disruption / FRET / MOA assay, NRAS Q61R; assay type: biochemical; conditions: NRAS Q61R; Ras-Raf disruption/FRET/MOA assay; read-out: IC50* NRAS Q61R FRET data
NRAS Q61R, sequence (P01111 whole entry Q61R): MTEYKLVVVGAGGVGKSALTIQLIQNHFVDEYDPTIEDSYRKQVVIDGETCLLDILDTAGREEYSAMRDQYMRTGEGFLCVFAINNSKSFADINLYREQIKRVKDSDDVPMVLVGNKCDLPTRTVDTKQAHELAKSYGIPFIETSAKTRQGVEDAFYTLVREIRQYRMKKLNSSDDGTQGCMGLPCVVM
NRAS Q61R, sequence (P62937 whole entry): as the sequence (P62937 whole entry) above
Outline: as §2

NRAS WT = NRAS WT (Homo sapiens (Human), UniProt P01111+P62937); test: Ras-Raf (BRAF RBD) disruption / FRET / MOA assay, NRAS WT; assay type: biochemical; conditions: read-out: IC50* NRAS WT FRET data
NRAS WT, sequence (P01111 whole entry): as the sequence (P01111 whole entry Q61R) above, with R61Q counted along it
NRAS WT, sequence (P62937 whole entry): as the sequence (P62937 whole entry) above
Outline: as §2

KRAS G12D = KRAS G12D (Homo sapiens (Human), UniProt P01116+P62937, G12D); test: Ras-Raf (BRAF RBD) disruption / FRET / MOA assay, KRAS G12D; assay type: biochemical; conditions: Ras-Raf disruption/FRET/MOA assay; class symbols; read-out: KRAS G12D FRET data IC50
KRAS G12D, sequence (P01116-2 other isoform, or with tags, fused parts or gaps G12D): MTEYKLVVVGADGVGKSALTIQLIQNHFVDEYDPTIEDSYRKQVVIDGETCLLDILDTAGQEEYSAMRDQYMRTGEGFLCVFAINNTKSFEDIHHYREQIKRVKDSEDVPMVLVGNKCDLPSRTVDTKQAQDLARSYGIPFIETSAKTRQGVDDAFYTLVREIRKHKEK
KRAS G12D, sequence (P62937 whole entry): as the sequence (P62937 whole entry) above
Outline: as §1

K-Ras G12C, sequence (P01116-2 other isoform, or with tags, fused parts or gaps G12C): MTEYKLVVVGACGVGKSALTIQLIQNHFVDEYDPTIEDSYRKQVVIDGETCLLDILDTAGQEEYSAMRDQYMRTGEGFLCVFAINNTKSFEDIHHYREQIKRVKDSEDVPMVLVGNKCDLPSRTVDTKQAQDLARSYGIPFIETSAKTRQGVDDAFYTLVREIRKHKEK
K-Ras G12C, sequence (P62937 whole entry): as the sequence (P62937 whole entry) above

Structure (SMILES)	pIC50 (K-Ras G12C)	pIC50 (NCI-H358 (K-Ras G12C))	pIC50 (KRAS Q61H)	pIC50 (NRAS Q61R)	pIC50 (NRAS WT)	pIC50 (KRAS G12D)
CCn1c(-c2cccnc2[C@H](C)OC)c2c3cc(ccc31)-c1cccc(c1)C[C@H](NC(=O)[C@H](C(C)C)N1CO[C@]3(CCN(C(=O)C#CC(C)(C)N4CCC4)C3)C1=O)C(=O)N1CCC[C@H](N1)C(=O)OCC(C)(C)C2 (atropisomer, axis not shown) [Example A351]	> 8.00	> 8.00	6.00 to 7.00	5.00 to 6.00	6.00 to 7.00	5.00 to 6.00
CO[C@@H](C)c1ncccc1-c1c2c3nc(ccc3n1CC(F)(F)F)-c1cccc(c1)C[C@H](NC(=O)[C@@H](COC1CN(C(=O)C#CC(C)(C)N(C)C)C1)C(C)C)C(=O)N1CCC[C@H](N1)C(=O)OCC(C)(C)C2 (atropisomer, axis not shown) [Example A724]	7.00 to 8.00	> 8.00	< 5.00	< 5.00	< 5.00	< 5.00
CO[C@@H](COC1CN(C(=O)C#CC(C)(C)N(C)C)C1)C(=O)N[C@H]1Cc2coc(n2)-c2ccc3c(c2)c(c(-c2cccnc2[C@H](C)OC)n3CC(F)(F)F)CC(C)(C)COC(=O)[C@@H]2CCCN(N2)C1=O (atropisomer, axis not shown) [Example A579]	> 8.00	> 8.00	5.00 to 6.00	< 5.00	5.00 to 6.00	< 5.00
CCn1c(-c2cccnc2[C@H](C)OC)c2c3cc(ccc31)-c1csc(n1)C[C@H](NC(=O)[C@H](C(C)C)N(C)C(=O)N1CCC3(CC1)CN(C(=O)/C=C/CN1CCOCC1)C3)C(=O)N1CCC[C@H](N1)C(=O)OCC(C)(C)C2 (atropisomer, axis not shown) [Example A669]	7.00 to 8.00	7.00 to 8.00	7.00 to 8.00	7.00 to 8.00	7.00 to 8.00	6.00 to 7.00
C=CC(=O)N1CCO[C@H]2CN(C(=O)N(C)[C@H](C(=O)N[C@H]3Cc4cccc(n4)-c4ccc5c(c4)c(c(-c4cccnc4[C@H](C)OC)n5CC(F)(F)F)CC(C)(C)COC(=O)[C@@H]4CCCN(N4)C3=O)C(C)C)C[C@H]21 (atropisomer, axis not shown) [Example A595]	7.00 to 8.00	> 8.00	6.00 to 7.00	6.00 to 7.00	6.00 to 7.00	5.00 to 6.00
C=CC(=O)N1CCC2(CC1)CCN(C(=O)N(C)[C@H](C(=O)N[C@H]1Cc3nc(cs3)-c3ccc4c(c3)c(c(-c3cccnc3[C@H](C)OC)n4CC)CC(C)(C)COC(=O)[C@@H]3CCCN(N3)C1=O)C(C)C)CC2 (atropisomer, axis not shown) [Example A697]	7.00 to 8.00	7.00 to 8.00	7.00 to 8.00	7.00 to 8.00	7.00 to 8.00	6.00 to 7.00
C=CC(=O)N(C)C[C@@H]1CCN(C(=O)N(C)[C@H](C(=O)N[C@H]2Cc3nc(cs3)-c3ccc4c(c3)c(c(-c3cccnc3[C@H](C)OC)n4CC)CC(C)(C)COC(=O)[C@@H]3CCCN(N3)C2=O)C(C)C)C1 (atropisomer, axis not shown) [Example A654]	6.00 to 7.00	7.00 to 8.00	7.00 to 8.00	6.00 to 7.00	6.00 to 7.00	6.00 to 7.00
CCn1c(-c2cccnc2[C@H](C)OC)c2c3cc(ccc31)-c1cccc(c1)C[C@H](NC(=O)[C@@H](COC1CN(C(=O)C#CC(C)(C)N3CCC3)C1)C(C)C)C(=O)N1CCC[C@H](N1)C(=O)OCC(C)(C)C2 (atropisomer, axis not shown) [Example A346]	> 8.00	> 8.00	5.00 to 6.00	< 5.00	< 5.00	< 5.00
CCn1c(-c2cccnc2[C@H](C)OC)c2c3cc(ccc31)C1=CCCN(C1)C[C@H](NC(=O)[C@@H](COC1CN(C(=O)C#CC(C)(C)N(C)C)C1)C(C)C)C(=O)N1CCC[C@H](N1)C(=O)OCC(C)(C)C2 (atropisomer, axis not shown) [Example A663, (2R)-2-(((1-(4-(dimethylamino)-4-methylpent-2-ynoyl)405yridine405-3-yl)oxy)methyl)-N-((6^3S,4S)-1^1-ethyl-1^2-(2-((S)-1-methoxyethyl)405yridine-3-yl)-10,10-dimethyl-5,7-dioxo-2^1,2^2,2^3,2^6,6^1,6^2,6^3,6^4,6^5,6^6-decahydro-1^1H-8-oxa-1(5,3)-indola-6(1,3)-pyridazina-2(5,1)-pyridinacycloundecaphane-4-yl)-3-methylbutanamide]	> 8.00	> 8.00	< 5.00	< 5.00	< 5.00	< 5.00
CO[C@@H](C)c1ncccc1-c1c2c3cc(ccc3n1CC(F)(F)F)-c1cc(F)cc(c1)C[C@H](NC(=O)[C@@H](COC1CN(C(=O)C#CC(C)(C)N(C)C)C1)C(C)C)C(=O)N1CCC[C@H](N1)C(=O)OCC(C)(C)C2 (atropisomer, axis not shown) [Example A348]	> 8.00	> 8.00	5.00 to 6.00	< 5.00	5.00 to 6.00	< 5.00
CO[C@@H](C)c1ncccc1-c1c2c3cc(ccc3n1CC(F)(F)F)N1CCO[C@@H](C[C@H](NC(=O)[C@@H](COC3CN(C(=O)C#CC(C)(C)N(C)C)C3)C(C)C)C(=O)N3CCC[C@H](N3)C(=O)OCC(C)(C)C2)C1 (atropisomer, axis not shown) [Example A375, (2R)-2-(((1-(4-(dimethylamino)-4-methylpent-2-ynoyl)azetidin-3-yl)oxy)methyl)-N-((2^2S,6^3S,4S)-1^2-(2-((S)-1-methoxyethyl)pyridin-3-yl)-10,10-dimethyl-5,7-dioxo-1^1-(2,2,2-trifluoroethyl)-6^1,6^2,6^3,6^4,6^5,6^6-hexahydro-1^1H-8-oxa-2(4,2)-morpholina-1(5,3)-indola-6(1,3)-pyridazinacycloundecaphane-4-yl)-3-methylbutanamide]	> 8.00	> 8.00	< 5.00	< 5.00	5.00 to 6.00	< 5.00
C=CC(=O)NCCN1CCN(C(=O)N(C)[C@H](C(=O)N[C@H]2Cc3nc(cs3)-c3ccc4c(c3)c(c(-c3cccnc3[C@H](C)OC)n4CC)CC(C)(C)COC(=O)[C@@H]3CCCN(N3)C2=O)C(C)C)CC1 (atropisomer, axis not shown) [Example A582]	6.00 to 7.00	7.00 to 8.00	7.00 to 8.00	6.00 to 7.00	6.00 to 7.00	5.00 to 6.00
C=CC(=O)N1CC[C@]2(C1)OCN([C@H](C(=O)N[C@H]1Cc3cccc(c3)-c3ccc4c(c3)c(c(-c3cccnc3[C@H](C)OC)n4CC)CC(C)(C)COC(=O)[C@@H]3CCCN(N3)C1=O)C(C)C)C2=O (atropisomer, axis not shown) [Example A371]	7.00 to 8.00	> 8.00	5.00 to 6.00	< 5.00	5.00 to 6.00	< 5.00
C=CC(=O)N1C[C@@H]2CN(C(=O)N(C)[C@H](C(=O)N[C@H]3Cc4nc(cs4)-c4ccc5c(c4)c(c(-c4cccnc4[C@H](C)OC)n5CC)CC(C)(C)COC(=O)[C@@H]4CCCN(N4)C3=O)C(C)C)C[C@@H]2C1 (atropisomer, axis not shown) [Example A389]	7.00 to 8.00	> 8.00	7.00 to 8.00	7.00 to 8.00	7.00 to 8.00	6.00 to 7.00
C=CC(=O)N1CC[C@@]2(CCN2C(=O)N(C)[C@H](C(=O)N[C@H]2Cc3nc(cs3)-c3ccc4c(c3)c(c(-c3cccnc3[C@H](C)OC)n4CC)CC(C)(C)COC(=O)[C@@H]3CCCN(N3)C2=O)C(C)C)C1 (atropisomer, axis not shown) [Example A661]	7.00 to 8.00	> 8.00	7.00 to 8.00	6.00 to 7.00	6.00 to 7.00	5.00 to 6.00
C=CC(=O)N1C[C@H]2CN(C(=O)N(C)[C@H](C(=O)N[C@H]3Cc4nc(cs4)-c4ccc5c(c4)c(c(-c4cccnc4[C@H](C)OC)n5CC)CC(C)(C)COC(=O)[C@@H]4CCCN(N4)C3=O)C(C)C)[C@H]2C1 (atropisomer, axis not shown) [Example A686]	7.00 to 8.00	> 8.00	7.00 to 8.00	6.00 to 7.00	6.00 to 7.00	5.00 to 6.00
C=CC(=O)N1CC[C@H](C(=O)N(C)[C@H](C(=O)N[C@H]2Cc3coc(n3)-c3ccc4c(c3)c(c(-c3cccnc3[C@H](C)OC)n4CC)CC(C)(C)COC(=O)[C@@H]3CCCN(N3)C2=O)C(C)C)C1 (atropisomer, axis not shown) [Example A468]	6.00 to 7.00	7.00 to 8.00	6.00 to 7.00	< 5.00	5.00 to 6.00	< 5.00
